{"source": "paper PMC5354587", "about": "“Ergosterone-coupled Triazol molecules trigger mitochondrial dysfunction, oxidative stress, and acidocalcisomal Ca^2+ release in Leishmania mexicana promastigotes” (Microbial Cell, 2015)", "format_in_all_cases": "cell-based", "key": {"[1]": {"tested_on": "Leishmania mexicana promastigotes", "experiment": "Mitochondrial membrane potential immediately after addition, rhodamine 123", "conditions": "Erg-GTr 1.4 μM or Erg-GTr2 2.3 μM", "method": "As the Leishmania mitochondrion seems to be involved in [Ca^2+]cyt regulation and can also accumulate Ca^2+ [9], the effect of Erg-GTr and Erg-GTr2 was analyzed immediately after its addition to parasites preloaded with rhodamine 123.\nMitotracker CMX Red(Invitrogen) was used to determine the mitochondrial membrane potential (Ψmit) of treated parasites. After 6, 16, 24, and 48 hours treatment, cells were incubated in culture medium with 50 nM Mitotracker CMX Red for 30 minutes at 26°C in the dark. Thereafter, parasites were washed twice with PBS, resuspended in 1 mL buffer, and analyzed using a cytometer (Beckman Coulter). Parasites incubated with valinomycin (500 nM for 30 minutes) were used as positive control. To evaluate the effect of ergosterone coupled molecules on the mitochondrial membrane potential immediately after molecule addition we used the fluorophore rhodamine-123, a mitochondrion-specific cationic dye, which distributes across the inner mitochondrial membranes strictly according to their membrane potential, as described before. Briefly, 1 x 10^7 parasites were washed twice with rhodamine 123 loading buffer (20 mM Tris-HCl, 130 mM KCl, 1 mM MgCl2, and 2 mM KH2PO4) and incubated with 20 μM rhodamine 123 for 45 minutes at 29°C under agitation. […] Fluorescence (ex 488 nm and em 530 nm) was registered in a Hitachi F-7000 Spectrofluorimeter. […]"}, "[2]": {"tested_on": "Leishmania mexicana promastigotes", "experiment": "Cytoplasmic Ca2+ level measurement with Fura 2-AM", "conditions": "Erg-GTr 1.4 μM or Erg-GTr2 2.3 μM; same result with extracellular Ca2+ sequestered by EGTA", "text": "In order to evaluate the possible effect of Erg-GTr and Erg-GTr2 on the cytoplasmic Ca^2+ concentration ([Ca^2+]cyt) in L. mexicana promastigotes, parasites were loaded with fura 2-AM, a fluorimetric Ca^2+ indicator which allows the measurement of intracellular changes in its concentration. Figure 7A represents the relative [Ca^2+]cyt, indicated as normalized OD340/380 ratio.\nThe fluorescent ratiometric Ca^2+ indicator Fura 2-AM was used to analyze intracellular Ca^2+ concentration. Promastigotes from stationary phase cultures were washed twice with PBS containing 1% glucose and incubated for 3 hours at 29°C with 4 μM Fura 2-AM, […], and 0.05% pluronic acid. Thereafter, parasites were washed twice, resuspended, and placed in a stirred quartz cuvette at 29°C. Fluorescence (ex 340 nm/380 nm and em 510 nm) was registered in a Hitachi F-7000 Spectrofluorimeter. Digitonin and EGTA were used to obtain the maximum and minimum [Ca^2+] in the sample, respectively."}, "[3]": {"tested_on": "Leishmania mexicana promastigotes", "experiment": "DNA content analysis with propidium iodide (cell cycle, SubG1)", "conditions": "1.4 μM Erg-GTr or 2.3 μM Erg-GTr2, 48 hours", "method": "In order to analyze if Erg-GTr molecules influence the normal cell cycle distribution, the DNA content of treated cells was evaluated using propidium iodide.\nFigure 4 FIGURE 4: Analysis of the DNA content in L. mexicana promastigotes. Treated (1.4 μM Erg-GTr or 2.3 μM Erg-GTr2) or control cells (DMSO) were harvested at different time points and prepared for determination of DNA content. Acquisition was performed in arithmetic scale to obtain G1 and G2/M peaks and in logarithmic scale to earn the subG1 peak. (A) Percentage of cells in the different phases of the cell cycle after 24 and 48 hours treatment. (B) SubG1 peak in percentage after 16, 24 and 48 hours drug contact. Quantification was carried out using the WinMDI software. The bars represent the mean+/-S.D. of three individual cultures measured at each time point.\nPropidium iodide was used to determinate the DNA content in parasites after treatment. 1 x 10^6 parasites were washed with PBS and resuspended in 100 μL lysis buffer (7.7 mM Na2HPO4, 2.3 mM KH2PO4) containing 6 μM digitonin. Samples were incubated at 4°C for 30 minutes. Finally, 400 μL staining buffer (20 μg/mL propidium iodide in PBS) was added to each sample. Samples were kept on ice in the dark until their analysis in the cytometer (Beckman Coulter)."}, "[4]": {"tested_on": "Leishmania mexicana promastigotes", "experiment": "Mitochondrial membrane potential, Mitotracker Red CMXROS, flow cytometry", "conditions": "treatment up to 48 hours, flow cytometry", "method": "In order to determine the energetic state of the mitochondrion after parasites treatment, the compound Mitotraker Red CMXROS was used. As described in the Materials and Methods section, parasites were treated for 6, 16, 24, and 48 hours with each molecule at its IC50, then incubated with Mitotraker Red CMXROS (50 nM) for 30 minutes under culture conditions, and finally analyzed by flow cytometry. […] Additionally, to rule out if Erg itself (the non-azole fraction of the conjugates) could be responsible for this hyperpolarization, parasites were treated with this compound and ΔΨmit was monitored for up to 48 hours by flow cytometry.\nMitotracker CMX Red(Invitrogen) was used to determine the mitochondrial membrane potential (Ψmit) of treated parasites. After 6, 16, 24, and 48 hours treatment, cells were incubated in culture medium with 50 nM Mitotracker CMX Red for 30 minutes at 26°C in the dark. Thereafter, parasites were washed twice with PBS, resuspended in 1 mL buffer, and analyzed using a cytometer (Beckman Coulter). Parasites incubated with valinomycin (500 nM for 30 minutes) were used as positive control. To evaluate the effect of ergosterone coupled molecules on the mitochondrial membrane potential immediately after molecule addition we used the fluorophore rhodamine-123, a mitochondrion-specific cationic dye, which distributes across the inner mitochondrial membranes strictly according to their membrane potential, as described before. Briefly, 1 x 10^7 parasites were washed twice with rhodamine 123 loading buffer (20 mM Tris-HCl, 130 mM KCl, 1 mM MgCl2, and 2 mM KH2PO4) and incubated with 20 μM rhodamine 123 for 45 minutes at 29°C under agitation. Samples were washed twice, resuspended in 500 μL of the same buffer, and transferred to a quartz cuvette. Fluorescence (ex 488 nm and em 530 nm) was registered in a Hitachi F-7000 Spectrofluorimeter. FCCP was used as control for mitochondrial membrane depolarization."}}}
{"compound": "CC(C)C(C)C=CC(C)C1CCC2C3=CC(=NNC(=O)n4cnnc4)C4(O)CC(=O)CCC4(C)C3CCC21C", "note": "(stereo not shown) [Erg-GTr, [1,2,4]triazole-4-carboxylic acid [5-hydroxy-10,13-dimethyl-3-oxo-17-(1,4,5-trimethyl-hex-2-enyl)-1,2,3,4,5,9,10,11,12,13,14,15,16,17-tetradecahydro-cyclopenta[a]phenanthren-6-ylidene]-hydrazide]", "values": [{"measurement": "rhodamine 123 fluorescence (depolarization of mitochondrial membrane potential)", "setting": "[1]", "result": "slow fluorescence increase"}, {"measurement": "effect on cytoplasmic Ca2+ concentration ([Ca2+]cyt)", "setting": "[2]", "result": "rapid increase"}, {"measurement": "cell cycle arrest in the G2/M phase", "setting": "[3]", "result": "moderate"}, {"measurement": "effect on inner mitochondrial membrane potential (ΔΨmit)", "setting": "[4]", "result": "hyperpolarize"}]}
